Data from US20220089592A1, “IMIDAZO[1,2-A]PYRIDINYL DERIVATIVES AS IRAK4 INHIBITORS” (priority 2019, published 2022).

Assays:
[1] = molecular target: T1, IRAK4 (Homo sapiens, UniProt Q9NWZ3); assay: 2-hour 1 mM ATP IRAK4 Biochemical assay (as above, but with 100 pM IRAK4 and 1 mM ATP); conditions: IRAK4 MSD BIOCHEMICAL (1 mM ATP) IC50 (μM), 100 pM IRAK4, 2 hours
T1 sequence (Q9NWZ3 1-460): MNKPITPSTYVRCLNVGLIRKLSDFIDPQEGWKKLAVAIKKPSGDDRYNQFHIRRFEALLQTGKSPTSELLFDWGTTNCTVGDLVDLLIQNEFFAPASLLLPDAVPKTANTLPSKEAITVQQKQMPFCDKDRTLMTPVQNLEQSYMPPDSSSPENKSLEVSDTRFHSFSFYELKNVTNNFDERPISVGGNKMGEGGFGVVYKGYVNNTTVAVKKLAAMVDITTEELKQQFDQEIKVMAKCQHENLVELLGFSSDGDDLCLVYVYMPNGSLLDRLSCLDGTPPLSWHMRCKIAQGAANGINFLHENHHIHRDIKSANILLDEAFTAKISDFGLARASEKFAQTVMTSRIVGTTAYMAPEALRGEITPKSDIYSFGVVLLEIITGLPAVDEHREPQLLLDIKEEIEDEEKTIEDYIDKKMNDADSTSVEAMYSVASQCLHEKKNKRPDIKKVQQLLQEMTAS
How it was run: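 Run with 100 pM IRAK4 and 1 mM ATP for 2 hours, quenched with EDTA pH 8. Phosphorylated biotinylated peptide captured on streptavidin MSD plates and detected with anti-phosphothreonine antibody plus Sulfo-Tag secondary by electrochemiluminescence.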

[2] = molecular target: T1, IRAK4; assay: 2-hour 10 μM ATP Biochemical Assay (MesoScale Detection format; IRAK4 phosphorylation of biotin labeled IRAK1 activation loop peptide)
How it was run: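 Kinase reaction run 2 h at 10 μM ATP with biotinylated IRAK1 activation-loop peptide, quenched with EDTA. Phospho-peptide captured on streptavidin MSD plates and detected with anti-phosphothreonine rabbit antibody plus Sulfo-Tag anti-rabbit electrochemiluminescence.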

[3] = IRAK4 MSD BIOCHEMICAL (10 μM ATP) IC50 (μM), 1 nM IRAK4, 2 hours

SMILES | IC50 [1] | IC50 [2, 3] | IC50 ([2]; read-out: IRAK4 MSD BIOCHEMICAL (10 μM ATP) IC50, 1 nM IRAK4, 2 hours)
CCOc1cc2nc(C3CC3)cn2cc1NC(=O)c1cccc2c1OCC2 [Example 119, N-(2-cyclopropyl-7-ethoxyimidazo[1,2-a]pyridin-6-yl)-2,3-dihydrobenzofuran-7-carboxamide] | 0.021 µM | 0.009 µM | 
O=C(Nc1ccc2nc(C3CCOCC3)cn2c1)c1cccc(C(F)F)n1 [Example 356, 6-(difluoromethyl)-N-(2-(tetrahydro-2H-pyran-4-yl)imidazo[1,2-a]pyridin-6-yl)picolinamide] | 0.033 µM | 0.015 µM | 
CCOc1cc2nc(C3CCOCC3)cn2cc1NC(=O)c1ccn(C)n1 [Example 204, N-(7-ethoxy-2-(tetrahydro-2H-pyran-4-yl)imidazo[1,2-a]pyridin-6-yl)-1-methyl-1H-pyrazole-3-carboxamide] | 0.021 µM | 0.004 µM | 
CCOc1cc2nc(C3CCOCC3)cn2cc1NC(=O)c1cc(F)n(C)n1 [Example 210, N-(7-ethoxy-2-(tetrahydro-2H-pyran-4-yl)imidazo[1,2-a]pyridin-6-yl)-5-fluoro-1-methyl-1H-pyrazole-3-carboxamide] | 0.038 µM | 0.015 µM | 
CCOc1cc2nc(C3CC3)cn2cc1NC(=O)c1cccc(C(F)(F)F)n1 [Example 2, N-(2-cyclopropyl-7-ethoxyimidazo[1,2-a]pyridin-6-yl)-6-(trifluoromethyl)picolinamide] | 0.016 µM | 0.003 µM | 
O=C(Nc1ccc2nc(CC3CCOC3)cn2c1)c1cccc(C(F)F)n1 (centres unmarked) [Example 355, 6-(difluoromethyl)-N-(2-((tetrahydrofuran-3-yl)methyl)imidazo[1,2-a]pyridin-6-yl)picolinamide] | 0.042 µM | 0.008 µM | 
CCOc1cc2nc(CC3CCCO3)cn2cc1NC(=O)c1cccc(C(F)(F)F)n1 (centres unmarked) [Example 60, N-(7-ethoxy-2-((tetrahydrofuran-2-yl)methyl)imidazo[1,2-a]pyridin-6-yl)-6-(trifluoromethyl)picolinamide] | 0.006 µM | 0.002 µM | 
CCOc1cc2nc(C(O)C3CC3)cn2cc1NC(=O)c1cccc(C(F)(F)F)n1 (centres unmarked) [Example 168, N-(2-(cyclopropyl(hydroxy)methyl)-7-ethoxyimidazo[1,2-a]pyridin-6-yl)-6-(trifluoromethyl)picolinamide] | 0.015 µM | 0.007 µM | 
CCOc1cc2nc(C3CNC3)cn2cc1NC(=O)c1cccc(C(F)(F)F)n1 [Example 61, N-(2-(azetidin-3-yl)-7-ethoxyimidazo[1,2-a]pyridin-6-yl)-6-(trifluoromethyl)picolinamide] | 0.002 µM | 0.001 µM | 
CCOc1cc2nc(C3CCOCC3)cn2cc1NC(=O)c1ccccc1OC [Example 213, N-(7-ethoxy-2-(tetrahydro-2H-pyran-4-yl)imidazo[1,2-a]pyridin-6-yl)-2-methoxybenzamide] | 0.019 µM | 0.005 µM | 
CCOc1cc2nc(C3CCOCC3)cn2cc1NC(=O)c1csc(C)n1 [Example 223, N-(7-ethoxy-2-(tetrahydro-2H-pyran-4-yl)imidazo[1,2-a]pyridin-6-yl)-2-methylthiazole-4-carboxamide] | 0.01 µM | 0.004 µM | 
CCOc1nc2nc(CC3CCOC3)cn2cc1NC(=O)c1cccc(C(F)(F)F)n1 (single isomer, unassigned) [Example 94] | 0.004 µM |  | 0.001 µM
CCOc1cc2nc(C(C)(C)C#N)cn2cc1NC(=O)c1csc(C)n1 [Example 241, N-(2-(2-cyanopropan-2-yl)-7-ethoxyimidazo[1,2-a]pyridin-6-yl)-2-methylthiazole-4-carboxamide] | 0.041 µM | 0.01 µM | 
CN1CCC(Oc2cc3nc(C4CCOCC4)cn3cc2NC(=O)c2cccc(C(F)F)n2)C1=O (centres unmarked) [Example 181, 6-(difluoromethyl)-N-(7-((1-methyl-2-oxopyrrolidin-3-yl)oxy)-2-(tetrahydro-2H-pyran-4-yl)imidazo[1,2-a]pyridin-6-yl)picolinamide] | 0.002 µM | 0.001 µM | 
COc1cc(NC(=O)c2cccc(C(F)F)n2)cn2cc(C3CCOCC3)nc12 [Example 304, 6-(difluoromethyl)-N-(8-methoxy-2-(tetrahydro-2H-pyran-4-yl)imidazo[1,2-a]pyridin-6-yl)picolinamide] | 0.013 µM | 0.006 µM | 

More lines, now with the values ahead:

IC50 [1] | IC50 [2, 3] | IC50 ([2]; read-out: IRAK4 MSD BIOCHEMICAL (10 μM ATP) IC50, 1 nM IRAK4, 2 hours) | SMILES
0.001 µM | 0.001 µM |  | CCOc1cc2nc(C(F)C3CCOC3)cn2cc1NC(=O)c1cccc(C(F)(F)F)n1 (mixture of isomers) [Example 142, N-(7-ethoxy-2-(fluoro(tetrahydrofuran-3-yl)methyl)imidazo[1,2-a]pyridin-6-yl)-6-(trifluoromethyl)picolinamide]
0.006 µM | 0.002 µM |  | CCOc1cc2nc([C@H]3C[C@H](OC(C)C)C3)cn2cc1NC(=O)c1cccc(C(F)F)n1 [Example 135, 6-(difluoromethyl)-N-(7-ethoxy-2-((1r,3r)-3-isopropoxycyclobutyl)imidazo[1,2-a]pyridin-6-yl)picolinamide]
0.003 µM | 0.003 µM |  | O=C(Nc1cn2cc(C3CC3)nc2cc1OCC1CCC1)c1cccc(C(F)F)n1 [Example 5, N-(7-(cyclobutylmethoxy)-2-cyclopropylimidazo[1,2-a]pyridin-6-yl)-6-(difluoromethyl)picolinamide]
0.012 µM | 0.002 µM |  | CCOc1cc2nc(CN3CCCC3=O)cn2cc1NC(=O)c1cccc(C(F)F)n1 [Example 85, 6-(difluoromethyl)-N-(7-ethoxy-2-((2-oxopyrrolidin-1-yl)methyl)imidazo[1,2-a]pyridin-6-yl)picolinamide]
0.003 µM | 0.002 µM |  | CCOc1cc2nc(CCOC)cn2cc1NC(=O)c1cccc(C(F)F)n1 [Example 13, 6-(difluoromethyl)-N-(7-ethoxy-2-(2-methoxyethyl)imidazo[1,2-a]pyridin-6-yl)picolinamide]
0.004 µM | 0.002 µM |  | CCOc1cc2nc(C3(O)CCOCC3)cn2cc1NC(=O)c1cccc(C(F)F)n1 [Example 90, 6-(difluoromethyl)-N-(7-ethoxy-2-(4-hydroxytetrahydro-2H-pyran-4-yl)imidazo[1,2-a]pyridin-6-yl)picolinamide]
0.002 µM | 0.001 µM |  | CCOc1nc2nc(C3CCOCC3)cn2cc1NC(=O)c1cccc(C(F)F)n1 [Example 372, 6-(difluoromethyl)-N-(7-ethoxy-2-(tetrahydro-2H-pyran-4-yl)imidazo[1,2-a]pyrimidin-6-yl)picolinamide]
0.011 µM | 0.003 µM |  | CCOc1cc2nc(CC)cn2cc1NC(=O)c1cccc(C(F)(F)F)n1 [Example 1, N-(7-ethoxy-2-ethylimidazo[1,2-a]pyridin-6-yl)-6-(trifluoromethyl)picolinamide]
0.002 µM | 0.001 µM |  | CCOc1cc2nc(C3(C#N)CCOCC3)cn2cc1NC(=O)c1cccc(C(F)F)n1 [Example 160, N-(2-(4-cyanotetrahydro-2H-pyran-4-yl)-7-ethoxyimidazo[1,2-a]pyridin-6-yl)-6-(difluoromethyl)picolinamide]
0.002 µM | 0.001 µM |  | CCOc1cc2nc(C3CCOCC3)cn2cc1NC(=O)c1cccc(C(C)C)n1 [Example 218, N-(7-ethoxy-2-(tetrahydro-2H-pyran-4-yl)imidazo[1,2-a]pyridin-6-yl)-6-isopropylpicolinamide]
0.001 µM | 0.001 µM |  | CCOc1cc2nc(C3CCCOC3)cn2cc1NC(=O)c1cccc(C(F)(F)F)n1 (centres unmarked) [Example 112, N-(7-ethoxy-2-(tetrahydro-2H-pyran-3-yl)imidazo[1,2-a]pyridin-6-yl)-6-(trifluoromethyl)picolinamide]
0.002 µM | 0.001 µM |  | O=C(Nc1cn2cc(C3CCOCC3)nc2cc1OC1CCOCC1)c1cccc(C(F)F)n1 [Example 185, 6-(difluoromethyl)-N-(2-(tetrahydro-2H-pyran-4-yl)-7-((tetrahydro-2H-pyran-4-yl)oxy)imidazo[1,2-a]pyridin-6-yl)picolinamide]
0.003 µM | 0.001 µM |  | CCOc1cc2nc(C3(OCC)CCOCC3)cn2cc1NC(=O)c1cccc(C(F)F)n1 [Example 91, 6-(difluoromethyl)-N-(7-ethoxy-2-(4-ethoxytetrahydro-2H-pyran-4-yl)imidazo[1,2-a]pyridin-6-yl)picolinamide]
0.013 µM | 0.004 µM |  | CCOc1cc2nc(C3CCOCC3)cn2cc1NC(=O)c1cccc(COC)n1 [Example 364, N-(7-ethoxy-2-(tetrahydro-2H-pyran-4-yl)imidazo[1,2-a]pyridin-6-yl)-6-(methoxymethyl)picolinamide]
0.001 µM | 0.001 µM |  | CCOc1cc2nc(C34CC(OC)(C3)C4)cn2cc1NC(=O)c1cccc(C(F)F)n1 [Example 153, 6-(difluoromethyl)-N-(7-ethoxy-2-(3-methoxybicyclo[1.1.1]pentan-1-yl)imidazo[1,2-a]pyridin-6-yl)picolinamide]
0.002 µM | 0.002 µM |  | CCOc1cc2nc([C@H]3C[C@@H](O)C3)cn2cc1NC(=O)c1cccc(C(F)F)n1 [Example 97]
